Assay results from patent US20250099531A1, “SYNERGISTIC COMPOSITIONS FOR ENHANCING TFEB-MEDIATED INTRACELLULAR CLEARANCE” (CELAGENEX RESEARCH (INDIA) PVT. LTD., priority 2022, published 2025).
Where two headings read alike, the source gives them in different places.

What was measured:
[1] = test system: Human Monocytes (THP-1) cell line; experiment: Estimation of autophagy using flow cytometer by CYTO-ID Autophagy Detection Kit; assay type: cell-based; settings: THP-1 cells in autophagy, 24 h treatment, amounts as in the group description
Description: [table] […] To each well of the 6 well plates, 2 mL of the diluted cell suspension was added. After 24 h, 1 mL of different test concentrations and combinations of test substances were added. […] THP-1 cells were incubated with Rapamycin, and test substances in a 6-well plate. Followed by incubation, cells from different groups were harvested and measured using CYTO-ID autophagy detection kit by flow cytometer. All the reagents, standard solutions and samples will be thawed to room temperature before use. The assay was carried out as per manufacturer's instructions.

[2] = test system: Human Monocytes (THP-1) cell line; settings: 24 h
Description: The in vitro cytotoxicity was performed on Human Monocytes (THP-1) cell line to find the non-toxic concentrations of the test substances by WST-1 assay and evaluate their autophagic activity in Human Monocytes by CYTO-ID® Autophagy Detection Kit
About 10 mg of the test substances, N-(3-Aminopropyl)-1,4-butanediamine and N-α-Acetyl-N-β-alanyl-L-histidine were dissolved separately with 1 mL RPMI-1640 supplemented with 2% inactivated FBS to obtain a stock solution of 10 mg/mL concentration. Diluted the stock to desired concentrations for carrying out further studies.
THP-1 (Human Monocyte cells) was procured from NCCS, India. Stock cells were cultured in RPMI-1640 supplemented with 10% inactivated Fetal Bovine Serum (FBS), penicillin (100 IU/mL), streptomycin (100 μg/mL) and amphotericin B (5 μg/mL) in an humidified atmosphere of 5% CO2 at 37° C. until confluent. The stock cultures were grown in 25 cm^2 culture flasks and all experiments were carried out in 96 microtitre plates and 6 well plate (Tarsons India Pvt. Ltd., Kolkata, India).
The cell count was adjusted to 100,000 cells/mL using RPMI-1640 containing 10% FBS. To each well of the 96 well micro titre plate, 0.1 mL of the diluted cell suspension was added. After 24 h, 0.1 mL of different test concentrations were added in the micro titre plate. The untreated cells were maintained as cell control for comparison. The plate was then incubated at 37° C. for 24 h in 5% CO2 atmosphere, and microscopic examination was carried out and observations were noted. After 24 h, 20 μL of WST-1 added to each well and incubated for 3 h at 37° C. in 5% CO2 atmosphere. The plates were gently shaken and the absorbance was measured using a micro plate reader at a wavelength of 490 nm.

SMILES | Percentage cells expressed CYTO-ID [1] [%] | Percentage cytotoxicity after treatment ([2]; 0.01 mg/mL) [%] | Percentage cytotoxicity after treatment ([2]; 0.03 mg/mL) [%] | Percentage cytotoxicity after treatment ([2]; 0.06 mg/mL) [%] | Percentage cytotoxicity after treatment ([2]; 0.07 mg/mL) [%] | Percentage cytotoxicity after treatment ([2]; 0.12 mg/mL) [%] | Percentage cytotoxicity after treatment ([2]; 0.25 mg/mL) [%] | Percentage cytotoxicity after treatment ([2]; 0.5 mg/mL) [%] | Percentage cytotoxicity after treatment ([2]; 1 mg/mL) [%] | Percentage cytotoxicity after treatment ([2]; 5 mg/mL) [%]
CC(=O)NCCC(=O)N[C@@H](Cc1c[nH]cn1)C(=O)O [N-α-Acetyl-N-β-alanyl-L-histidine] | 4.03 |  |  |  |  |  |  |  |  | 
NCCCCNCCCN [N-(3-Aminopropyl)-1,4-butanediamine] | 7.24 | 0.74 ± 0.25 | 0.68 ± 2.30 | 0.94 ± 0.18 | 0.86 ± 2.08 | 1.20 ± 0.87 | 4.10 ± 1.63 | 11.79 ± 3.36 | 22.88 ± 2.80 | 39.37 ± 1.37
CO[C@H]1C[C@@H]2CC[C@@H](C)[C@@](O)(O2)C(=O)C(=O)N2CCCC[C@H]2C(=O)O[C@H]([C@H](C)C[C@@H]2CC[C@@H](O)[C@H](OC)C2)CC(=O)[C@H](C)/C=C(\C)[C@@H](O)[C@@H](OC)C(=O)[C@H](C)C[C@H](C)/C=C/C=C/C=C/1C [Rapamycin, reference compound] | 18.85 |  |  |  |  |  |  |  |  | 
